Data set [1] has as its system murine Swiss albino fibroblasts (3T3). Briefly: Cell viability assay, NRU endpoint, 3T3. It is filed as cell-based. The conditions noted are these: Mus musculus, Fibroblast, 3T3, 24 h incubation, 10–250 µg/mL. On the procedure: (§1) The murine Swiss albino fibroblasts (3T3), the human breast adenocarcinoma (MCF-7), the human epithelial carcinoma (HeLa) and the squamous cell carcinoma (A431) cell lines were obtained from Celltec UB. Cells were grown in DMEM medium (4.5 g/L glucose) supplemented with 10% (v/v) FBS, 2 mM L-glutamine, 100 U/mL penicillin and 100 µg/mL streptomycin at 37 °C, 5% CO2. Cells were routinely cultured in 75 cm^2 culture flasks and were trypsinized using trypsin–EDTA when the cells reached approximately 80% confluence. The trypan blue assay, which allows for a direct identification and enumeration of the live (unstained) and dead (blue) cells in the cell population, was used to evaluate the viability of the cells in the cell suspension obtained.
(§2) 3T3 (1 × 10^5 cells/mL), A431, HeLa and MCF-7 cells (5 × 10^4 cells/mL) were grown at defined densities in the 60 central wells of a 96-well plate. Cells were incubated for 24 h in 5% CO2 at 37 °C. Then, the spent medium was removed, and cells were incubated for 24 h with their corresponding compound solutions (1 mg/mL) previously diluted in a minimum amount of DMF (dimethylformamide) and then in DMEM medium supplemented with 5% FBS (100 µL) at the required concentration range (10–250 µg/mL). The viability of the cells upon incubation with the lactam derivatives was assayed using 2 different endpoints: NRU and MTT.
(§3) The neutral red uptake (NRU) assay is based on the accumulation of dye in the lysosomes of viable cells. After the cells were incubated for 24 h with the corresponding systems, the medium was removed, and the solutions were incubated with the NR dye (Sigma-Aldrich, St. Louis, MO, USA) solution (50 µg/mL) dissolved in the medium, without FBS and without phenol red (Lonza, Verviers, Belgium), for 3 h. Cells were then washed with sterile PBS, followed by the addition of 100 µL of a solution containing 50% absolute ethanol and 1% acetic acid in distilled water to extract the dye. To promote the total dissolution of the dye, plates were placed in a microtiter-plate shaker for 5 min at room temperature. The absorbance of the resulting solutions was measured at 550 nm (Bio-Rad 550 microplate reader, Bio-Rad California, Hercules, CA, USA). Finally, the effect of each treatment was calculated as the percentage of dye uptake by viable cells relative to the control cells (cells without any treatment).
(§4) The corresponding half-maximal inhibitory concentration (IC50) values for the different formulations as a function of the cell line and endpoint were determined from the fitting of concentration-dependent viability curves. The corresponding selectivity indexes toward tumoral cells were calculated using the following ratio: SI = IC50 (non-tumoral cell line)/IC50 (tumoral cell line) where 3T3 fibroblasts were used as close representative cells under non-tumoral conditions. Moreover, pseudo selectivity indexes toward tumoral cells were calculated considering the discrete cellular responses at the maximum tested concentration (250 µg/mL).

The subject of data set [2] is human breast adenocarcinoma (MCF-7) cell line. Put plainly: Cell viability assay, MTT endpoint, MCF-7. It is filed as cell-based. The conditions noted are these: for IC50: Homo sapiens, MCF7, 24 h incubation, 10–250 µg/mL. On the procedure:
as §1, §2
(§5) Only living cells can reduce the yellow tetrazolium salt 3-(4,5-dimethyl-2-thiazolyl)-2,5-diphenyltetrazolium bromide (MTT) to insoluble purple formazan crystals. After a 24 h incubation of the cells with their corresponding NPs, the medium was removed and 100 µL of MTT (Sigma-Aldrich, St. Louis, USA) in PBS (5 mg/mL) diluted 1:10 in culture medium without phenol red and without FBS (Lonza, Verviers, Belgium) was added to the cells. After 3 h of incubation, the medium was removed. Thereafter, 100 µL of DMSO (Sigma-Aldrich, St. Louis, MO, USA) was added to each well to dissolve the purple formazan crystals. Agitation and determination of the absorbance of the extracted solution were performed under the same conditions as described in NRU Assay section. Finally, the effect of each treatment was calculated as the percentage of tetrazolium salt’s reduction by viable cells relative to control cells (cells without any treatment).
as §4

For data set [3] the test system is unchanged. Briefly: Cell viability assay, NRU endpoint, MCF-7. The conditions noted are these: for IC50: Homo sapiens, MCF7, 24 h incubation, 10–250 µg/mL; for SI250 (selective toxicity at 250 µg/mL): MCF-7 compared to 3T3, 250 µg/mL, 24 h. It is filed as cell-based. On the procedure: as §1, §2, §3, §4
For data set [4], the system named is human epithelial carcinoma (HeLa) cell line. Put plainly: Cell viability assay, NRU endpoint, HeLa. It is filed as cell-based. Particulars: 24 h incubation, 10–250 µg/mL. On the procedure:
as §1, §2, §3, §4

The test system of data set [5] is squamous cell carcinoma (A431) cell line. Briefly: Cell viability assay, MTT endpoint, A431. It is filed as cell-based. Particulars: for IC50: Homo sapiens, A-431, 24 h, A431, 24 h incubation, 10–250 µg/mL. As to the method: as §1, §2, §5, §4
In data set [6] the test system is human epithelial carcinoma (HeLa) cell line. Put plainly: Cell viability assay, MTT endpoint, HeLa. Type of data set: cell-based. The conditions noted are these: HeLa; for IC50: Homo sapiens, 24 h, 24 h incubation, 10–250 µg/mL. On the procedure: as §1, §2, §5, §4
In data set [7] the test system is squamous cell carcinoma (A431) cell line. Briefly: Cell viability assay, NRU endpoint, A431. It is filed as cell-based. Particulars: for SI250 (selective toxicity at 250 µg/mL): A431 compared to 3T3, 250 µg/mL, 24 h; for IC50: Homo sapiens, A-431, 24 h, A431, 24 h incubation, 10–250 µg/mL. As to the method: as §1, §2, §3, §4
Data set [8] is described as follows: Hemolysis assay with human erythrocyte suspension. Type of data set: cell-based. Particulars: human, washed human erythrocyte suspension, PBS pH 7.4, read-out: degree of hemolysis. As to the method: Human blood samples were obtained from the Banc de Sang i Teixits de Barcelona (Spain) from the Catalan Department of Health. Blood was deposited in tubes with the anticoagulant EDTA-K3. Blood samples were centrifuged at 3000 rpm and 4 °C for 10 min (Megafuge 2.0 R. Heraeus Instruments, Hanau, Germany) to induce sedimentation. Plasma was extracted with a Pasteur pipette. Next, the residual pellet was washed with PBS at pH 7.4. This procedure was repeated three times to remove residual leukocytes and platelets and to concentrate the erythrocytes. Following the last wash, the erythrocyte suspension was diluted (1:1) in PBS at pH 7.4 to obtain a suitable erythrocyte suspension (cell density of 8 × 10^9 cell/mL).
The hemolysis assay determined the capability of different compounds to induce the hemolysis of the erythrocyte membrane. Stock solutions of each compound at 1 mg/mL in PBS at pH 7.4 were prepared. Different volumes (10–80 μL) were placed in polystyrene tubes, and an aliquot of 25 µL of the erythrocyte suspensions was added to each tube. The final volume was 1 mL. The tubes were incubated at room temperature under rotatory conditions. Then, the tubes were centrifuged at 10,000 rpm for 5 min. The supernatants’ absorbance at 540 nm (Shimadzu UV-160A, Shimadzu, Duisburg, Germany) was compared with that of the positive (erythrocytes hemolyzed with distilled water) and negative (erythrocyte suspension in PBS at pH 7.4.) controls.
The degree of hemolysis was determined using the following equation:Hemolysis (%) = 100 × (Abs − Abs0)/(Abs100 − Abs0) where Abs, Abs0 and Abs100 are the absorbance of the test samples, of the suspension treated with isotonic phosphate–buffered saline (PBS) and of the suspension of complete hemolysis treated with distilled water, respectively.

In data set [9] the test system is murine Swiss albino fibroblasts (3T3). Put plainly: Cell viability assay, MTT endpoint, 3T3. Type of data set: cell-based. The conditions noted are these: Mus musculus, Fibroblast, 3T3, 24 h incubation, 10–250 µg/mL. On the procedure: as §1, §2, §5, §4
Data set [10] in a line: Cell viability assay, NRU endpoint, cell line not specified. It is filed as cell-based. Particulars: up to 250 µg/mL, read-out: minimum cell viability values. On the procedure:
as §1, §2, §3

Data set [11] in a line: Cell viability assay, MTT endpoint, cell line not specified. The conditions noted are these: under discrete conditions, up to 250 µg/mL, read-out: minimum cell viability values. It is filed as cell-based. On the procedure:
as §1
3T3 (1 × 10^5 cells/mL), A431, HeLa and MCF-7 cells (5 × 10^4 cells/mL) were grown at defined densities in the 60 central wells of a 96-well plate. […]
Only living cells can reduce the yellow tetrazolium salt 3-(4,5-dimethyl-2-thiazolyl)-2,5-diphenyltetrazolium bromide (MTT) to insoluble purple formazan crystals. […] Agitation and determination of the absorbance of the extracted solution were performed under the same conditions as described in NRU Assay section. Finally, the effect of each treatment was calculated as the percentage of tetrazolium salt’s reduction by viable cells relative to control cells (cells without any treatment).

Consider 3 molecules from PMC11085086, “Microwave-Assisted Atom Transfer Radical Cyclization in the Synthesis of 3,3-Dichloro-γ- and δ-Lactams from N-Alkenyl-Tethered Trichloroacetamides Catalyzed by RuCl2(PPh3)3 and Their Cytotoxic Evaluation” (Molecules, 2024).

The melting point is the temperature, or range, at which the solid turns liquid. One may read the IC50 as the concentration that inhibits the measured activity by half. A higher IC50 goes with a need for much substance. What is called viability is the share of living cells, or the viability signal relative to a control.

`C[C@@H](Cl)[C@H]1CN(C(C)(C)C)C(=O)C1(Cl)Cl` (racemic) [epi-2g, (RS)-1-(tert-Butyl)-3,3-dichloro-4-((RS)-1-chloroethyl)pyrrolidin-2-one]: the melting point is 113 to 114 °C.

Take `CC(C)(C)N1CCC(CCl)C(Cl)(Cl)C1=O` (centres unmarked) [2i, 1-(tert-Butyl)-3,3-dichloro-4-(chloromethyl)piperidin-2-one]: the IC50 in [1], in data set [2] (MTT), in data set [3], in [4], in data set [5] and in [6] was over 250 µg/mL throughout. The IC50 in data set [7] and in data set [9] was over 250 µg/mL each time. In addition, the “SI250 (selective toxicity at 250 µg/mL)” value in [2] (MTT, MCF-7 compared to 3T3, 250 µg/mL, 24 h) is “one”; in data set [3], “one”; in [5] (A431 compared to 3T3, 250 µg/mL, 24 h), 1.1; in data set [7], 1.1. Besides, the hemolysis at 10 µg/mL in data set [8] came out at 0.003%. In addition, the hemolysis at 80 µg/mL in [8] was about 0.07%. In data set [10], the viability at 24 h is 70%.

`O=C1CCC(N2CC(CCl)C(Cl)(Cl)C2=O)CC1` (centres unmarked) [2p]: the IC50 in [1], in [2] (MTT), in data set [3], in [4], in [5] and in data set [6] was over 250 µg/mL each time. Also, the IC50 in data set [7] and in data set [9] was over 250 µg/mL throughout. Also, the “effect on proliferation of tumor cells” value in data set [2] (MCF-7, MTT, under the assayed conditions) is “could promote the proliferation”; in [6] (under the assayed conditions), “could promote the proliferation”. Also, the “SI250 (selective toxicity at 250 µg/mL)” value in [3] is “one”; in data set [7], 1.1. In addition, the viability at 24 h in data set [11] is 60 to 70%; in data set [10] it was 100%. Moreover, the hemolysis at 10 µg/mL in data set [8] amounted to 0.005%. In addition, in data set [8], the hemolysis at 80 µg/mL was about 0.07%.
